Laboratory results published in patent US10050214B2, “Near-ultraviolet stimulated light-emitting compound and production method for same” (NANO CMS CO., LTD., priority 2014, dated 2018).

Tests used:
Assay type in all cases: physicochemical
[1] = Residual fluorescent intensity after artificial light exposure (ASTM G 154-06 Cycle 1)
Procedure: The obtained quinazolinone compound was irradiated with near-UV light in the wavelength of 365 nm, and the intensity of discharged fluorescence was measured. The fluorescent intensity was measured using a fluorescence spectrometer (DARSA-5000, PSI Co., Ltd.), under the condition of 365 nm stimulation wavelength, cumulative average of five-time measurements, and 1024×128 CCD sensor shape. In addition, measurement of residual fluorescent intensity after artificial light exposure was repeated identically according to ASTM G 154-06 Cycle 1 standard.

[2] = Solubility in organic solvents (eight product items); conditions: for Solubility, 2% Sodium Hydroxide (Caustic Soda) Solution: 2% Sodium Hydroxide solution; for solubility in organic solvents (in words): summary of TABLE 3
Procedure: (§1) Further, the melting point was measured using the melting point measuring instrument (M5000, KRÜSS GmbH), by assuming that the phase change is at the point where the change in transmissivity reaches 20%. Solubility in organic solvents was measured with respect to eight product items.

[3] = Chemical resistance and solvent resistance tests on printed material; conditions: summary of TABLE 4; printed material with 10% compound
Procedure: (§2) In addition, compositions respectively containing 10% compounds of embodiments 6 and 11 were sealed on a non-florescent paper, using a grinder and an offset plate printing press (HFT-225, HONGFAT machinery manufacturing Co., Ltd.). Chemical resistance tests and solvent resistance tests were performed on the printed material for 30 minutes at 23° C. with respect to each of nine product items. Furthermore, grades with reference to the standard and remaining fluorescence intensities were measured by irradiating the near-ultraviolet light of 365 nm wavelength, using a weatherability tester (QUV, Q-LAB Corporation), according to ASTM G154-06 Cycle No. 1 standard (except for the condensation conditions).

[4] = Weatherability test (QUV tester, ASTM G154-06 Cycle No. 1); conditions: in words
Procedure: as §2

[5] = Thermal stability (melting point measuring instrument); conditions: summary of TABLE 3
Procedure: as §1

Compound	The remaining fluorescence intensity (after artificial light exposure) Coating (10%) [1]	further results
O=c1[nH]c(-c2cc(Cl)ccc2O)nc2ccccc12 [Embodiment 4, 2-(5-chloro-2-hydroxyphenyl)quinazoline-4(3H)-on]	65%	
O=c1[nH]c(-c2cc(Cl)ccc2O)nc2ccc(Cl)cc12 [Embodiment 5, 6-choloro-2-(5-chloro-2-hydroxyphenyl)quinazoline-4(3H)-on]	80%	
O=c1[nH]c(-c2cc(Cl)ccc2O)nc2cc(Cl)ccc12 [Embodiment 6, 7-chloro-2-(5-chloro-2-hydroxyphenyl)quinazoline-4(3H)-on]	70%	Solubility, 2% Sodium Hydroxide (Caustic Soda) Solution [2]: Resolved; solubility in organic solvents (in words) [2]: low; solvent resistance (in words) [3]: high solvent resistance; light fastness grade and remaining fluorescence intensity compared with conventional commercial products [4]: higher light fastness grade and remaining fluorescence intensity than those of conventional commercial products; thermal stability (in words) [5]: high
COc1ccc(-c2nc3ccccc3c(=O)[nH]2)c(O)c1 [Embodiment 7, 2-(2-hydroxy-4-methoxyphenyl)quinazoline-4-(3H)-on]	40%	
COc1ccc(-c2nc3ccc(Cl)cc3c(=O)[nH]2)c(O)c1 [Embodiment 8, 6-chloro-2-(2-hydroxy-4-methoxyphenyl)quinazoline-4(3H)-on]	45%	
O=c1[nH]c(-c2ccc(Cl)cc2O)nc2ccccc12 [Embodiment 10, 2-(4-chloro-2-hydroxyphenyl)quinazoline-4(3H)-on]	60%	
O=c1[nH]c(-c2ccc(Cl)cc2O)nc2ccc(Cl)cc12 [Embodiment 11, 6-chloro-2-(4-chloro-2-hydroxyphenyl)quinazoline-4(3H)-on]	70%	Solubility, 2% Sodium Hydroxide (Caustic Soda) Solution [2]: Resolved; solubility in organic solvents (in words) [2]: low; solvent resistance (in words) [3]: high solvent resistance; light fastness grade and remaining fluorescence intensity compared with conventional commercial products [4]: higher light fastness grade and remaining fluorescence intensity than those of conventional commercial products; thermal stability (in words) [5]: high
O=c1[nH]c(-c2ccc(Cl)cc2O)nc2cc(Cl)ccc12 [Embodiment 12, 7-chloro-2-(4-chloro-2-hydroxyphenyl)quinazoline-4(3H)-on]	40%	
O=c1[nH]c(-c2cc(F)ccc2O)nc2ccccc12 [Embodiment 13, 2-(5-fluoro-2-hyroxyphenyl)quinazoline-4(3H)-on]	65%	
O=c1[nH]c(-c2c(O)cccc2Cl)nc2ccccc12 [Embodiment 16, 2-(2-chloro-6-hyrdoxyphenyl)quinazoline-4(3H)-on]	60%	
O=c1[nH]c(-c2cccc(Cl)c2O)nc2ccccc12 [Embodiment 17, 2-(3-choloro-2-hydroxyphenyl)quinazoline-4(3H)-on]	60%	
